In paper PMC7576722, “An immunochemistry-based screen for chemical inhibitors of DNA-protein interactions and its application to human CGGBP1” (BMC Cancer, 2020):

What was measured:
rCGGBP1 [1] = biological target: T1, rCGGBP1 (Homo sapiens, UniProt Q9UFW8); experiment: in vitro Alu DNA immunoprecipitation with qPCR (anti-FLAG); type: binding; settings: 100 μM compound, 45 min, room temperature, PBS; Alu DNA 1 μg, protein 0.5 μg
T1 construct: gene CGGBP1; recombinant, C-terminal FLAG tag; about 20 kDa
T1 sequence (Q9UFW8 1-167): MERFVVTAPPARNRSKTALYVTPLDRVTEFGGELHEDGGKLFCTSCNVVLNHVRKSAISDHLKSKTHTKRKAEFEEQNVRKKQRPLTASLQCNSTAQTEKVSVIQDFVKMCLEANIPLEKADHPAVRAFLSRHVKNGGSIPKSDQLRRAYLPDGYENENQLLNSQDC
Procedure: in vitro Alu DNA immunoprecipitation with qPCR (anti-FLAG) on rCGGBP1 | Pre-incubation of rCGGBP1 with Givinostat reduces the amount of Alu DNA co-precipitating with FLAG-antibody by […]

rCGGBP1 [2] = biological target: T1, rCGGBP1; experiment: DBID dot blot of protein binding to immobilised genomic DNA, chemiluminescence densitometry; settings: 100 μM compound, 45 min, 4 °C, RIPA buffer; sonicated HEK293T genomic DNA

Compound | % reduction of co-precipitated Alu DNA at 100 μM (rCGGBP1 [1]) | DBID dot blot of protein binding to immobilised genomic DNA, chemiluminescence d (rCGGBP1 [2])
CCN(CC)Cc1ccc2cc(COC(=O)Nc3ccc(C(=O)NO)cc3)ccc2c1 [Givinostat] | 70-80% | –
CC(NC(=O)c1ccccc1/N=C/c1c(O)ccc2ccccc12)c1ccccc1 (stereo not drawn) [Sirtinol] | – | (ii) moderate inhibition (Sirtinol and Tenovin-I)
CC(=O)Nc1ccc(NC(=S)NC(=O)c2ccc(C(C)(C)C)cc2)cc1 [Tenovin-1] | – | (ii) moderate inhibition (Sirtinol and Tenovin-I)
